# Results taken from patent publication US20260137696A1, “Compositions Comprising an Inhibitor of Galectin-3” (University of Liverpool, priority 2023, published 2026).
# Entries after “also recorded” stand apart in the source; their conditions may differ.
# Legend:
# [1] = test system: SW620^Gal3+ cells; experiment: Tumour cell adhesion to laminin; format: cell-based, human; details: 10 μM; Galectin-3-expressing SW620^Gal3+ cells
# Method: (§1) White wall 96-well plates were coated with laminin (20 μg/ml) in coating buffer (15 mM Na2CO3 17 mM NaHCO3 pH 9.6) overnight at room temperature. ZsGreen- and luciferase-transfected SW620Gal3+, SW620Gal-3, or ACA19+ cells (5×10^5 cells/ml) were pre-incubated without or with 10 μM of the compound of Formula I or the compound of Formula II for 10 minutes before added into laminin-coated plates for 30 min at 37° C. The plates were washed twice with PBS before lysed by PLB for 5 min on a shaker. Luciferase Assay Reagent was then added before luminescence was measured using Tecan Infinite F200 microplate reader.
# (§2) Nanty-six well plates were coated with matrix protein laminin (20 μg/ml) in coating buffer overnight. ZsGreen- and luciferase-labelled SW620Gal3− and SW620Gal3+ cells (5×10^5 cells/ml) were mixed without or with 10 μM inhibitors for 15 minutes before introduced to the laminin-coated plates for 30 minutes at 37° C. The plates were washed twice with PBS and the bound cells were lysed by Passive lysis buffer. After addition of Luciferase Assay Reagent (LAR) for 10 minutes, the luminescence intensity in the wells was measured by a microplate reader.
# [2] = test system: SW620^Gal3− cells; experiment: Tumour cell adhesion to laminin; format: cell-based, human; details: 10 μM; Galectin-3-suppressed SW620^Gal3− cells
# Method: as §1, §2
# [3] = test system: SW620^Gal3+ cells; experiment: Cancer cell adhesion to HUVECs; format: cell-based, human; details: 10 μM; Galectin-3-expressing SW620^Gal3+ cells
# Method: (§3) Adhesion of human colon cancer SW620 cells to human umbilical vein endothelial cells (HUVECs) was assessed in the absence or presence of the compounds of Formula I and Formula II (10 μM). […] (N=2, n=2);
# (§4) Adhesion of human colon cancer SW620 cells to human umbilical vein endothelial cells (HUVECs) was assessed in the absence or presence of the compounds of Formula I and Formula II (10 μM).
# (§5) HUVECs (1.5×10^5 cells/ml) were seeded into 96-well plates in complete EBM-2 medium and incubated at 37° C. 5% CO2 for 48-72 hours until a monolayer was formed. Monolayer integrity was confirmed by measuring trans-endothelial electrical resistance (TEER) using a Volt Ohm Meter and only monolayers with TEER reading over 800 Ω/cm^2 were used for the assay. ZsGreen- and luciferase-transfected SW620Gal3+, SW620Gal3− or ACA19+ cells (5×10^5 cells/ml) was then added to the HUVECs without or with 10 μM of the compound of Formula I or the compound of Formula II for 30-35 min at 37° C. The cells were washed twice with PBS before lysed with PLB. The cell lysates were transferred into new wells of white-walled 96-well plates and Luciferase Assay Reagent was added. The wells were mixed well and luminescence was measured using Infinite F200 Microplate reader. The experiment was performed three times, each time in triplicates.
# [4] = test system: ACA19+ cells; experiment: Melanoma cell adhesion to HUVECs; format: cell-based; details: human melanoma ACA19+ cells, various concentrations
# Method: as §3, §4, §5
# [5] = test system: HUVECs; experiment: Vascular cell tubule formation (angiogenesis); format: cell-based, human; details: different concentrations
# Method: Vascular cell tubule formation was assessed with HUVECs in the absence or presence of different concentrations of the compounds of Formula I or Formula II.
# Matrigel matrix (50 μl) was added to 96-well plates for 60 min at 37° C. to allow gel formation. HUVEC cells (1×10^5 cells/ml in 1:1 EGM/EBM2 media) was introduced to the plates without or with Galectin-3 (2 μg/ml) or different concentrations of compound inhibitors for 24 hr at 37° C. Endothelial cell tube formation was examined with Leica DMLA Laser Microscope. The total number of branching points and the sum of the lengths of tubes were calculated.
# [6] = test system: H1975 cell; experiment: Lung cancer cell adhesion to basement matrix; format: cell-based, human; details: for IC50: Homo sapiens, NCI-H1975; for H1975 cell adhesion to matrix: different concentrations
# Method: (§6) Nanty-six well plates were coated with 50 μl Matrigel (1:30 diluted in PBS) at 37° C. for 1 hour. Cancer cells, pre-labelled with fluorescent die DiI at 37° C. for 20 minutes, were washed twice with PBS and resuspended into 3×10^4 cells/ml in serum-free medium. The matrix-coated 96-well plates were washed twice with PBS before introduction of […] cell suspension with different concentrations of the inhibitors or PBS/DMSO (control) for 1 hour at 37° C. The plates were washed twice with PBS before three randomly selected Field of Views (FOVs) were recorded by fluorescence microscope and number of adhesion cells were quantified by Image J.
# [7] = test system: MDA-MB-231 cell; experiment: Triple-negative breast cancer cell adhesion to basement matrix; format: cell-based, human; details: for adhesion of control (Con) MDA-MB-231 cells: non-transfected cells (FIG. 15C, 15D); for MDA-MB-231 cell adhesion to matrix: different concentrations (FIG. 15A, 15B)
# Method: as §6
# [8] = test system: galectin-3 knockout (Gal3KO) MDA-MB-231 cells; experiment: Triple-negative breast cancer cell adhesion to basement matrix, galectin-3 knockout; format: cell-based, human; details: galectin-3 knockout by CRISPR/Cas9 (FIG. 15C, 15D)
# Method: as §6
# MDAMB-231 or PANC-1 cells were seeded into 6-well plate (2×10^5 cells) and cultured at 37° C. for 24 hour. Galectin-3 CRISPR Cas9 Knockout plasmid (2 μg) and galectin-3 HDR plasmid (2 μg) was mixed with Plasmid Transfection Medium (21 μl) for 5 minutes before addition to a mixture of lipofectamine STEM Transfection Reagent (STEM00001) (1 μl) and Plasmid Transfection Medium (25 μl) for 10 minutes at room temperature. The cells in the 6-well plates were washed and introduced with the Plasmid DNA/Lipofectamine STEM Transfection Reagent complex at 37° C. for 24 hours. […] Successful co-transfection of the CRISPR/Cas9 KO Plasmid and HDR Plasmid was confirmed by expression of red fluorescence protein of the cells. […]
# [9] = test system: PANC1 cell; experiment: Pancreatic cancer cell adhesion to basement matrix; format: cell-based, human; details: for adhesion of control PANC1 cells: non-transfected cells (FIG. 16C, 16D); for PANC1 cell adhesion to matrix: different concentrations (FIG. 16A, 16B)
# Method: as §6
Structure (SMILES),adhesion to matrix protein component laminin [1],adhesion to matrix protein component laminin [2],adhesion to HUVEC [3],ACA19+ cell adhesion to HUVEC [4],"HUVEC tubule formation, tubule numbers [5]","HUVEC tubule formation, vascular tubule length [5]",IC50 [6] [µM],H1975 cell adhesion to matrix [6],adhesion of control (Con) MDA-MB-231 cells [7],MDA-MB-231 cell adhesion to matrix [7],adhesion of Gal3KO MDA-MB-231 cells [8],adhesion of control PANC1 cells [9],PANC1 cell adhesion to matrix [9]
C[C@H]1COc2c(N3CCN(C)CC3)c(F)cc3c(=O)c(C(=O)NNc4cccc(N)c4)cn1c23 [Formula II],significantly inhibits,much reduced effect,significantly inhibits,dose-dependent inhibition,dose-dependently inhibition,dose-dependently inhibition,~10,dose-dependently inhibits,significant reduction; also recorded: significant inhibition,dose-dependent inhibition,lost their inhibitory effect,significant reduction; also recorded: significant inhibition,dose-dependently inhibits
C[C@H]1COc2c(N3CCN(C)CC3)c(F)cc3c(=O)c(C(=O)NNc4ccc(N)cc4)cn1c23 [Formula I],significantly inhibits,much reduced effect,significantly inhibits,dose-dependent inhibition,dose-dependently inhibition,dose-dependently inhibition,> 20,dose-dependently inhibits,significant reduction; also recorded: significant inhibition,dose-dependent inhibition,lost their inhibitory effect,significant reduction; also recorded: significant inhibition,dose-dependently inhibits
